Patent US20240217911A1, “A hydroxycarboxylic acid for the treatment of cancer” (UNIVERSITÄT ZÜRICH, priority 2021, published 2024)
Entries after “also recorded” stand apart in the source; their conditions may differ.

How the values were obtained:
Format in all cases: in vivo, mouse
[1] = tested on: MC-38 tumours; experiment: MC-38 subcutaneous CRC tumour model; settings: for anti-tumour effect, tumour volume and weight (FIG. 15): 5-FU or both; for anti-tumour effect, tumour volume and weight (FIG. 11-13): metabolite 200 uM, 200 uL/mouse i.p. day 6, 9, 12, vs vehicle; for tumour reduction, tumor volume and weight (FIG. 17A-B): GPR84 agonist/antagonist 200 uM
Experimental: WT C57BL/6JRJ were purchased from Janvier Labs (France). All mice were kept in specific-pathogen-free conditions. Males and female littermates between 8-12 weeks were used for all the experiments. All animal experiments were performed according to Swiss animal welfare legislation and approved by the local veterinary office (Veterinaramt des Kantons Zurich). […]
For CRC injection models, MC38 cells were suspended in DMEM high glucose cell culture medium mixed 1:1 with Matrigel and 300,000 cells injected subcutaneously into the flanks, and mice euthanized […] after injection. Tumour development was measured every 3 days using a digital calliper. Tumour volume was calculated using the ellipsoid formula: 4/3*3.14*Length/2*(Width/2)^2, where the shorter dimension was used as width and depth. Mice were terminated 14 days after subcutaneous injection or when tumour volume reached 1 cm^3 or the length reached 2 cm. For the other solid tumours subcutaneous injection models, B16 melanoma cells were suspended in DMEM high glucose cell culture medium mixed 1:1 with Matrigel and 200,000 cells injected into both flanks of the animal. Lewis lung carcinoma cells LLC1.1 were suspended in DMEM high glucose cell culture medium mixed 1:1 with Matrigel and 200,000 cells injected in the right flank of a mouse. PD-1 blockade was performed in the subcutaneous tumour model by injecting of 200 μg/mouse anti-PD1(CD279) antibody (BioXCell; clone 29F.1A12) or IgG isotype control (BioXCell; clone 2a3) i.p. on days 6, 9 and 12 after subcutaneous MC-38 cells injection. 5-Fluorouracil (5-FU) was administered by i.p injections of 20 mg/kg 5-FU dissolved in DMSO at days 6, 9, and 12.
(§1) Each metabolite was dissolved in dimethyl sulfoxide (DMSO) to reach the stock concentration of 100 mM. For mice injections, stock solution of each metabolite was diluted 1:500 in saline to reach final concentration of 200 uM and 200 uL/mouse were injected intraperitoneally on day 6, day 9 and day 12-post tumour cell injection. Metabolites used: 3-Hydroxydodecanedioic acid (R and S forms) (collaborators UZH), Dodecanedioic acid (Sigma), Decanoic acid (Sigma), Unidecanoic acid (Sigma), Dodecanoic acid (Sigma), Tridecanoic acid (Sigma), Tetradecanoic acid (Angene), 3-Hydroxydecanoic acid (Sigma), 3-Hydroxydodecanoic acid (Sigma), 3-Hydroxytetradecanoic acid (Angene). GPR84 receptor blockade was performed in the subcutaneous tumour model by injecting 200 uL/mouse of 200 uM of GPR84 antagonist GLPG1205 (MCE MedChemExpress).

[2] = tested on: B16 melanoma; experiment: B16 melanoma subcutaneous tumour model; settings: vs vehicle
Experimental: (§2) WT C57BL/6JRJ were purchased from Janvier Labs (France). All mice were kept in specific-pathogen-free conditions. Males and female littermates between 8-12 weeks were used for all the experiments. All animal experiments were performed according to Swiss animal welfare legislation and approved by the local veterinary office (Veterinaramt des Kantons Zurich).
(§3) Clostridiales strains Eubacterium hallii: DSM3353T, Faecalibacterium prausnitzii: DSM17677, Roseburia intestinalis: DSM14610T, Anaerostipes caccae: DSM14662T were obtained from PharmaBiome AG, Zurich (sometimes referred to as butyrate producers, 4 clostridia consortia CC4, or BP). All strains were cultivated at 37° C. in yeast extract, casitone and fatty acid (YCFA) medium (Lopez et al. 2012. Appl Environ Microbiol 78, 420-428). Strains were maintained under anoxic CO2 atmosphere using Hungate techniques. […] Viability of cells was confirmed using propidium iodide staining measured by flow cytometry. […]
(§4) For CRC injection models, MC38 cells were suspended in DMEM high glucose cell culture medium mixed 1:1 with Matrigel and 300,000 cells injected subcutaneously into the flanks, and mice euthanized […] after injection. Tumour development was measured every 3 days using a digital calliper. Tumour volume was calculated using the ellipsoid formula: 4/3*3.14*Length/2*(Width/2)^2, where the shorter dimension was used as width and depth. […]

[3] = tested on: LLC1.1 lung cancer; experiment: LLC1.1 Lewis lung carcinoma subcutaneous tumour model; settings: LLC.1 lung cancer; vs vehicle
Experimental: as §2, §3, §4

[4] = tested on: CD8+ T cells; experiment: flow analysis of CD8+ T cells in MC-38 tumours; settings: flow analysis in MC-38 tumor
Experimental: FIG. 17. A, MC-38 tumor volume curve (mm^3) and B, tumorweight (g) in WT mice treated with GPR84 agonist, 3-OH dodecanoic acid (3-OH Dodeca), GPR84 antagonist, GPR84 antagonist & 3-OH Dodeca or saline (Ctrl). C, Bar charts of flow analysis in tumor corresponding to the groups described in A and B. Two-way ANOVA with Dunnett's correction for multiple comparisons (A & C). Means±SEM analyzed by Kruskal-Wallis and Dunn's correction for multiple comparison (B). Experiments were performed at least twice, n=5.
as §1

CCCCCCCCCC(O)CC(=O)O (stereo not shown) [3-hydroxydodecanoic acid] was tested, and the “anti-tumour effect, tumour volume and weight (FIG. 15)” value ([1]; 3-hydroxydodecanoic acid) was “comparable anti-tumour effect”, the “anti-tumour effect, tumour volume and weight (FIG. 14)” value ([1]; 3-hydroxydodecanoic acid, anti-PD-1 or both) was “comparable anti-tumour effect” and the “anti-tumour effect, tumour volume and weight (FIG. 11-13)” value [1] was “most favourable anti-tumour effect; also recorded: anti-tumour effect of the bacterial metabolites was specifically induced by 3-hydroxydodecanoic acid”. The “anti-tumour effect, tumour volume and weight (FIG. 11-13)” value ([1]; listed as CH3(CH2)8 CHOH—(CH2)—CO2H) was “inhibited tumour growth”, the “anti-tumour effect, tumour volume and weight (FIG. 16 A)” value [2] was “clear anti-tumour effect” and the “anti-tumour effect, tumour volume and weight (FIG. 16 B)” value [3] was “clear anti-tumour effect”. For the same molecule, the “expression of granzyme B and IFNγ by CD8+ T cells (FIG. 17C)” value (“expression of granzyme B and IFNγ” below) [4] was “similarly increased expression of granzyme B and IFNγ by CD8+ T cells”.

In the case of O=c1[nH]cc(F)c(=O)[nH]1 [5-FU, 5-fluorouracil, reference compound], the “anti-tumour effect, tumour volume and weight (FIG. 15)” value ([1]; 3-hydroxydodecanoic acid) is reported as “comparable anti-tumour effect”.

In the case of O=c1nc(OC[C@@H]2COCCO2)cc2n1CCc1cc(C#CC3CC3)ccc1-2 [GPR84 antagonist, reference compound], the “tumour reduction, tumor volume and weight (FIG. 17A-B)” value (shortened to “tumour reduction”) ([1]; 200 uL/mouse i.p. day 6, 9, 12) is reported as “completely abrogated the anti-tumour effect of 3-hydroxydodecanoic acid” and the “expression of granzyme B and IFNγ” value [4] is reported as “entirely lost this anti-tumour immunological change”.

For CCCCCCSc1nc(O)cc(=O)[nH]1 [ZQ-16, 2-(hexylthio)pyramidine-4,6-diol, reference compound], the “tumour reduction” value ([1]; 200 uL/mouse i.p. day 6, 9, 12) was “limit tumour growth in a model of cancer in vivo”, the “tumour reduction” value ([1]; 200 uL/mouse i.p. day 6, 9, 12, listed as 2-(hexylthio)pyramidine-4,6-diol) was “inhibited tumour growth” and the “expression of granzyme B and IFNγ” value [4] was “similarly increased expression of granzyme B and IFNγ by CD8+ T cells”.
